Laboratory results reported in patent US20050054680A1, “Agonists and antagonists of 5h3-like receptors of invertebrates as pesticides” (priority 2001, published 2005).
pIC50: −log10 of the molar value. “Also recorded” adds a separate entry of the source. Read-outs that look alike come from different tables or passages of the source.

Tests used:
[1] = tested on: nematode C. elegans; conditions: cited from earlier work; for Effect on serotonin-stimulated rate of pharyngeal pumping: drug 0.325 mM, serotonin 0.325 mM
[2] = tested on: larvae of the lepidopteran Helicoverpa armigera; conditions: in vivo; cited from earlier work
[3] = tested on: C. elegans of the Bristol N2 strain; assay: Automated feeding assay (bead ingestion, pharyngeal pumping); type: in vivo, Caenorhabditis elegans; conditions: for Effect of 0.325 mM compound on serotonin-stimulated (0.325 mM) bead ingestion: 0.325 mM compound plus 0.325 mM serotonin; for Effect of 0.325 mM compound on bead ingestion: no added serotonin; for pIC50: Caenorhabditis elegans
From the text: An automated screening assay has been developed and described in the present Applicants' co-pending International patent application No. PCT/AU00/01476 (WO 01/40500). Using the screening assay, twenty novel tropanyl ester compounds as well as tropanyl dichlorobenzoate were screened for nematicidal activity.
The assay used was essentially that described in WO 01/40500 with minor modifications. The protocol was as follows:
(1.) Plate Culture. C. elegans of the Bristol N2 strain (Brenner, 1974) were cultured at room temperature on HMS174 E. coli bacteria (Campbell et al., 1978) spread on a 150 mm diameter petri dish containing enhanced NGM 1.7% (w/v) (Avery and Horvitz, 1990) agar until a good population of adult nematodes was present, but food reserves had not been exhausted.
(2.) The nematodes were collected by washing each plate with 10 mL and then 5 mL of M9 buffer plate and filtering over a 20 μm nylon mesh (Nytal—Catalogue no. BCNY-HDO02-20) to retain adult nematodes. The nematodes from 7-8 of these 150 mm plates were collected together and placed on a 63 μm mesh filter (Nytal—product code PA-25-43) and washed with 200-250 mL of M9 buffer or MilliQ water. This procedure allows the passage of nematodes whilst retaining larger debris. Finally the nematodes were collected over a 20 μm mesh.
(3.) Adult nematodes were collected from the mesh using a pasteur pipette and allowed to settle in an eppendorf tube at 1×g for 10 minutes. This packed volume was used to calculate quantities of nematodes for experiments and assays, although nematodes were resuspended in 2-10 volumes of M9 buffer for transfer. Quantitative transfers of nematodes were performed using a Gilson Pipetman P200 or equivalent and a yellow tip with 5 mm cut off the sharp end.
(4.) Assays were performed in 24 well tissue-lture clusters (Nunc multidish). The final assay volume was 230 μL comprising the following sequential additions: • (i) M9 buffer—sufficient to bring the final volume to 230 μL • ([…]) Any other pharmacological agents—≦1.5 μL of drug in DMSO (or water) • (iv) Nematodes—150 μL of a 10% (v/v) stock in M9 • (v) Fluorescent beads—23 μL of a 1% w/v solution in M9.
Where serotonin or other pharmacological agents were omitted, the volume was adjusted with M9 buffer. Control experiments included 1.5 μL of DMSO except in the case of ondansetron, which was added from an aqueous stock.
The fluorescent beads were 1.30 μm uniformly dyed microsphere beads with a hydrophilic surface-coating. The fluorescence excitation maximum was 420 nm and the emission maximum was 485 nm (catalogue code FC04F, carboxylate-modified polystyrene/polyvinyl copolymer, manufactured and supplied by Bangs Laboratories, Inc. 9025 Technology Drive, Fishers, INDIANA 46038-2886, USA).
(5.) The nematodes were incubated for 60 minutes after the addition of the fluorescent beads at room temperature (≈21° C.) without shaking. The assay was terminated by the addition of 20 μL of 100 mM sodium azide.
(6.) Two aliquots of 100 μl each were transferred from each well of the 24 well cluster to a pair of wells in a pre-blocked mesh-bottomed plate (see below for details of the mesh-bottomed plate) and the buffer/bead suspension was immediately aspirated away through the filter mesh using a Millipore Multiscreen vacuum manifold.
(7.) A total of eight washing steps were performed. Each of the first five washes used 200 μL of 1%(w/v) sodium lauryl sulphate (SDS—Sigma) in M9 buffer. The third and fifth washes involved pipetting the solution up and down in the wells of the plate ten times each wash. The SDS washes were followed by three washes with 200 μL of M9 buffer only. At the end of each washing step, solutions were aspirated away through the mesh using a Millipore Multiscreen vacuum manifold. […]

[4] = tested on: aphid Myzus persicae; conditions: in vivo; cited from earlier work
[5] = tested on: insects; conditions: in vivo; cited from earlier work
[6] = tested on: C. elegans; conditions: cited from earlier work
[7] = as summarised in the background, no concentration given
[8] = listed as tropanyl dichlorobenzoate
[9] = in the presence of 1 mM serotonin, estimated from log dose response curves (FIG. 2), read-out: IC50 (inhibitory concentration 50%) for bead ingestion

## CN1[C@@H]2CC[C@H]1CC(OC(=O)c1cc(Cl)cc(Cl)c1)C2 (stereo partly shown) [MDL 72222, 3,5-dichlorobenzoic acid tropan-3-yl ester]
[1]; [7]
  Effect on pharyngeal pumping: profoundly inhibited
[1]
  Effect on serotonin-stimulated rate of pharyngeal pumping: antagonised the stimulatory effect
[2]
  Effect on larval growth rates: reduced growth rates
[3]
  Effect of 0.325 mM compound on serotonin-stimulated (0.325 mM) bead ingestion: reverses strongly
  Effect of 0.325 mM compound on bead ingestion: inhibits
[3]; [8]
  Effect of 0.325 mM compound on serotonin-stimulated (0.325 mM) bead ingestion: strongly reversed
  Effect of 0.325 mM compound on bead ingestion: reduced
[3]; in the absence of added serotonin, estimated (FIG. 2), read-out: IC50 (dose that depressed the basal bead ingestion rate by 50%)
  pIC50: 4.96
[3]; [9]
  pIC50: 4.40
[4]
  Detrimental effects on Myzus persicae: dose-dependent detrimental effects, including lethality
[5]
  Detrimental effects in insects: significant detrimental effects, including some mortality
[6]; in vivo, listed as tropanyl dichlorobenzoate
  Detrimental effects on C. elegans: dose-dependent mortality and other detrimental effects; also recorded: dose-dependent detrimental effects, including lethality
[6]; reported previously in WO 01/61000
  Lowest effective concentration in the chronic toxicity assay: ~11 µM

## Cc1nccn1CC1CCc2c(c3ccccc3n2C)C1=O (stereo not shown) [ondansetron]
[1]; [7]
  Effect on pharyngeal pumping: profoundly inhibited
[1]
  Effect on serotonin-stimulated rate of pharyngeal pumping: antagonised the stimulatory effect
[3]; [9]
  pIC50: 3.25
[5]
  Detrimental effects in insects: significant detrimental effects, including some mortality

## Cc1[nH]c2ccc(O)cc2c1CCN.Cl [2-methyl-5-hydroxytryptamine, 2-methyl-5-hydroxytryptamine hydrochloride]
[1]; 3 mM
  Effect on locomotion: did not inhibit locomotion
  Effect on pharyngeal pumping: strongly stimulated
[1]; [7]
  Effect on pharyngeal pumping: strongly and specifically stimulated

## COC(=O)c1ccccc1C(=O)OC1C[C@H]2CC[C@@H](C1)N2C (stereo partly shown) [DCP-45238 (18), phthalic acid methyl ester tropan-3-yl ester]
[3]
  Effect of 0.325 mM compound on serotonin-stimulated (0.325 mM) bead ingestion: strongly reversed; also recorded: reverses markedly
  Effect of 0.325 mM compound on bead ingestion: no effect

## CN1[C@@H]2CC[C@H]1CC(OC(=O)c1ccccc1Cl)C2 (stereo partly shown) [DCP-45222 (2), 2-chloro-benzoic acid tropan-3-yl ester]
[3]
  Effect of 0.325 mM compound on serotonin-stimulated (0.325 mM) bead ingestion: no effect
  Effect of 0.325 mM compound on bead ingestion: no effect

## CN1[C@@H]2CC[C@H]1CC(OC(=O)c1ccc(Cl)cc1)C2 (stereo partly shown) [DCP-45225 (5), 4-chloro-benzoic acid tropan-3-yl ester]
[3]
  Effect of 0.325 mM compound on serotonin-stimulated (0.325 mM) bead ingestion: no effect
  Effect of 0.325 mM compound on bead ingestion: no effect

## COC(=O)c1cncc(C(=O)OC2C[C@H]3CC[C@@H](C2)N3C)c1 (stereo partly shown) [DCP-45239 (19), pyridine-3,5-dicarboxylic acid methyl ester tropan-3-yl ester]
[3]
  Effect of 0.325 mM compound on serotonin-stimulated (0.325 mM) bead ingestion: potentiates marginally
  Effect of 0.325 mM compound on bead ingestion: no effect

## COC(=O)c1cccc(C(=O)OC2C[C@H]3CC[C@@H](C2)N3C)c1 (stereo partly shown) [DCP-45237 (17), isophthalic acid methyl ester tropan-3-yl ester]
[3]
  Effect of 0.325 mM compound on serotonin-stimulated (0.325 mM) bead ingestion: no effect
  Effect of 0.325 mM compound on bead ingestion: no effect

## CN1[C@@H]2CC[C@H]1CC(OC(=O)c1cc(F)ccc1F)C2 (stereo partly shown) [DCP-45226 (6), 2,5-difluoro-benzoic acid tropan-3-yl ester]
[3]
  Effect of 0.325 mM compound on serotonin-stimulated (0.325 mM) bead ingestion: reverses marginally
  Effect of 0.325 mM compound on bead ingestion: no effect

## CN1[C@@H]2CC[C@H]1CC(OC(=O)c1c(F)cccc1F)C2 (stereo partly shown) [DCP-45227 (7), 2,6-difluoro-benzoic acid tropan-3-yl ester]
[3]
  Effect of 0.325 mM compound on serotonin-stimulated (0.325 mM) bead ingestion: reverses marginally
  Effect of 0.325 mM compound on bead ingestion: no effect
